Experimental data: patent US20210386828A1, “METHODS FOR ENHANCING CANCER IMMUNOTHERAPY” (The Regents of the University of California, priority 2018, published 2021)

How the values were obtained:
MC-38 cells = assay: Mass spectrometry peptidomic profiling of H-2Kb and H-2Db bound peptides; assay type: cell-based, mouse; settings: H-2Db experiment
Procedure: Tubulin was used as loading control.
To confirm the ability of Oxali to potentiate antigen presentation, mass spectrometry-based peptidomic profiling of H-2Kb and H-2Db molecules isolated from MC-38 cells was conducted.

Myc-CaP cells [1] = assay: Immunoblot of IRF1 and phosphorylated STAT1; assay type: cell-based, mouse; settings: for IRF1 expression: Oxali at 2 μM
Text: Protein loading was confirmed with tubulin antibodies.
The basis for the synergy between low-dose Oxali and IFNγ was investigated. […] Given the ability of Oxali to induce Ifngr2 mRNA expression, not only in Myc-CaP cells (FIG. 2D) but also in mouse and human melanoma cell lines (FIGS. 11C and 11D), it was postulated that the synergistic activation of IRF1 and STAT1 by Oxali plus IFNγ may be due to IFNγR2 induction.

Myc-CaP cells [2] = assay: Stress, DNA damage and type I IFN responses (IB, qRT-PCR)
Text: CRISPR-Cas9 was used to ablate cyclic GMP-AMP synthase (cGAS, encoded by Mb21d1) and Ifnar2 (FIG. 11K).

Myc-CaP cells [3] = assay: qRT-PCR of MHC-I component mRNAs in Myc-CaP cells; assay type: cell-based, mouse
Text: (§1) Each dot represents an experiment and horizontal lines denote the median.

Myc-CaP cells [4] = assay: ATAC-seq of chromatin accessibility; assay type: cell-based, mouse; settings: for accessibility of transcription factor binding sites at the Nfkb1 locus: 2 μM Oxali, 1 ng/mL IFNγ
Text: FIGS. 4A-4D are pictorial and graphical diagrams showing low dose Oxali alters chromatin accessibility of MHC-I related genes. […] The Venn diagram compares gene expression between untreated and differently treated cells (left). The heat map depicts differentially expressed genes involved in the indicated pathways (right). […] The Venn diagram presents the number of binding site changes and overlaps after each treatment (left). FIGS. 4C-4D show detailed ATAC seq analyses of the Nfkb1 gene (FIG. 4C) and a mouse Chr17 gene cluster containing Psmb8, Psmb9, Tap1 and Tap2 (FIG. 4D). Changes in transcription factor (TF) binding site accessibility are compared to RNA seq results. The affected TF binding sites are depicted below each panel.
FIGS. 12A-12C are pictorial and graphical diagrams showing that low dose Oxali enhances chromatin accessibility of MHC-I related genes.
To better understand the transcriptional mechanisms underlying the response to Oxali, RNA-seq and ATAC-seq analyses were conducted on Myc-CaP cells that were incubated with either 2 μM Oxali, 1 ng/mL IFNγ, or a combination of the two. By coupling ATAC-seq, a method for assessing transcription factor binding site accessibility (Buenrostro et al., 2015), with RNA-seq, transcription factor loading can be correlated with actual transcriptional changes.
Of note, the NF-κB pathway, represented by the Nfkb1 gene, was stimulated by Oxali but not IFNγ. […] To examine activation of the antigen processing and presentation pathway, a gene cluster on mouse chromosome 17 harboring Psmb9, Tap1, Psmb8, and Tap2 was analyzed. […] However, IFNγ further enhanced transcription factor accessibility in Oxali-treated cells (FIG. 4D), an effect that was consistent with the transcriptomic analysis (FIG. 4A). […] Similarly, the Erap1 locus, which is induced by both Oxali and IFNγ, was made more accessible by Oxali relative to IFNγ treatment (FIG. 12C). […] The addition of IFNγ expanded this response to include E2F6, JUNB, HIF-lb, KLF3, and DMRT6 binding sites. Of note, the chromosome 17 MHC-I region opened by Oxali contained recognition sites for BORIS and CTCF, two general transcription factors responsible for chromatin opening (Li et al., 2012).

p300/CBP = assay: p300 immunoblot and imaging; assay type: cell-based, mouse
[5] = tested on: PC3, WM793, MIA PaCa-2, NSCLC and melanoma cell lines
Procedure: The stained cells were examined by indirect immunofluorescence. […] Surface HLA-ABC expression was determined by flow cytometry.

s.c. Myc-CaP tumors = assay: qRT-PCR of total tumor RNA from treated mice; assay type: in vivo, mouse; settings: low-dose
Procedure: (§2) FIGS. 7A-7G are pictorial and graphical diagrams showing that IFNγR2 induction is needed for the Oxali-potentiated response to anti-PDL1 therapy. […] After four treatment cycles, during which tumor size was measured, the mice were euthanized and analyzed. Significance was determined by Mann-Whitney and t-tests. Transient Cas9 expression was used to avoid any immune response to Cas9-molecules.
The synergistic inhibition of Myc-CaP tumor growth by Oxali+anti-PD-L1 was attenuated by IFNγR2 ablation (FIGS. 7A and 14E). […] Importantly, Psmb9, Tap1, and Nlrc5 induction by Oxali+anti-PD-L1 was almost completely abolished after IFNγR2 ablation in Myc-CaP cells (FIGS. 7C and 14F). Oxali+anti-PD-L1 induced MHC-I (H-2Kq and H-2Dd) surface expression by tumor cells, which was also abolished by IFNγR2 ablation (FIG. 7D). Oxali+anti-PD-L1 had no effect on surface MHC-I (H-2Kq) or PD-L1 expression by tumor-infiltrating CD11b^+ myeloid cells in vivo (FIGS. 14G and 14H). […] Thus, Oxali-induced upregulation of MHC-I genes in malignant cells is important for the final recognition and killing stage of the cancer-immunity cycle (Chen and Mellman, 2013) but has no role in ICI-induced CTL reinvigoration.

HDACs = assay: HDAC enzyme activity in extracts of treated cells; settings: after 6 hours
Myc-CaP cells [6] = assay: Nuclear abundance of transcription factors (IB, flow cytometry); assay type: cell-based, mouse; settings: 2 μM Oxali
Myc-CaP and TRC2 cells = assay: Immunoblot of immunoproteasome subunits PSMB8 and PSMB9; settings: low-dose
[7] = tested on: Ifngr2, Tap1 and Psmb8 promoters; assay: ChIP analysis of promoters
LMP7 (PSMB8) = assay: Lysate LMP7 (PSMB8) immunoproteasome activity with specific fluorogenic peptide substrate; assay type: cell-based, mouse; settings: low-dose
Procedure: Lysate LMP7 (PSMB8) immunoproteasome activity was measured using LMP7 (PSMB8) specific fluorogenic peptide substrate. […] Each dot is a single experiment and horizontal lines are the medians.

[8] = Cell death in vitro at the low Oxali dose; assay type: cell-based; settings: Oxali dose used in the experiments (low dose)
Text: Thus, for purposed of this disclosure, the term “low dose” may include a non-ICD amount of a cytostatic agent or a platinoid.
In the past, Oxali was studied as a prototype of anticancer drugs that are capable of inducing immunogenic cell death (ICD) and T-cell priming (Galluzzi et al., 2015). However, the exact mechanism of ICD induction is poorly defined, and it is not clear whether Oxali and similar drugs exert their immunogenic activity solely via ICD. Other studies have reported Oxali and several other platinoids to function as inducers of the integrated stress response (ISR) (Bruno et al., 2017; Kepp et al., 2015). Nevertheless, the mechanism of ISR activation by platinoids and its relevance for their immunostimulatory activity is unknown. […] Oxali treatment also results in induction of Interferon gamma receptor 2 (IFNγR2), through NF-κB signaling, which potentiates the response of MHC-I-expressing cancer cells to IFNγ produced by CD8^+ T cells that have been reinvigorated by ICI administration.

[9] = tested on: histone acetyltransferase (HAT); assay: HAT activity in lysates of treated cells
[10] = tested on: bone marrow (BM)-derived macrophages; assay: Bone marrow derived macrophages, qRT-PCR and flow cytometry; assay type: cell-based, mouse
Myc-CaP cells [11] = assay: Surface MHC (H-2Kq) expression by flow cytometry; assay type: cell-based, mouse; settings: for surface expression of H-2Kq: agent as named
Text: as §1

[12] = tested on: Myc-CaP and TRAMP-C2 cells; assay: RNA-seq of mouse PCa cells incubated with platinoids; assay type: cell-based
Procedure: FIGS. 1E-1G show total RNA from Myc-CaP cells incubated with indicated agents for 24 hr was subjected to RNA-seq. Top 20 hallmark gene sets were sorted by normalized enrichment score (NES). Immune-related gene sets are in blue (IFNγ signaling in light blue).
The top 20 hallmark gene sets sorted by normalized enrichment score (NES) are shown to depict the Oxali- and Cis-induced responses determined by GSEA analysis. Immune-related gene sets are colored blue (IFNγ signaling in light blue). […] Immune-related gene sets are in blue (IFNγ signaling in light blue).
To investigate how low-dose Oxali affects the PCa transcriptome, RNA sequencing (RNA-seq) was conducted on mouse PCa cells (Myc-CaP and TRAMP-C2) incubated with 2 μM of either Oxali or Cisplatin (Cis), a platinoid that, unlike Oxali, minimally enhances the response to PD-L1 blockade or ISP ablation (Pfirschke et al., 2016; Shalapour et al., 2015).

[13] = tested on: TRC2 cells expressing ovalbumin variants; settings: Oxali-treated TRC2-N4 cells with OT-I CD8+ T cells
Procedure: FIGS. 2J-2L show TRC2 cells stable transfected with vectors expressing high, medium, and low affinity variants of Ovalbumin were incubated with 4 μM Oxali and/or CFSE-labeled OT-I cells for 72 hr and analyzed by flow cytometry using an antibody that recognizes [sequence] (SEQ ID NO: 24) bound to H-2Kb (FIG. 2J). The number of OT-I cells in each culture (FIG. 2K) and percentage of vital TRC2 cells (FIG. 2L) were determined by flow cytometry.

[14] = tested on: s.c. Myc-CaP, B16 or YUMM1.7 tumors; assay: Growth of subcutaneous tumors in mice under weekly Oxali and/or anti-PD-L1; assay type: in vivo, mouse
Procedure: as §2
FIGS. 14A-14J are graphical diagrams showing that IFNγR2 expression is needed for platinoid-enhanced anti-PD-L1 responsiveness. […] After three cycles, the mice were euthanized, and tumor volume was determined. Significance was determined by t-tests (n=3). […] Tumor volume was determined using caliper. After three treatment cycles, the mice were euthanized and analyzed. Significance was determined by t-tests. Dots show averages and the brackets indicate±SEM (n=3). […] Each dot represents a mouse and each horizontal line indicates mean±SEM. […] Transient Cas9 expression was used to avoid any immune response to Cas9. Tumor growth was monitored using a caliper and analyzed using t-test. Each dot represents average and the brackets are SEM (n=3-5). […] Each dot represents a mouse and each horizontal line indicates the median.
The synergistic inhibition of Myc-CaP tumor growth by Oxali+anti-PD-L1 was attenuated by IFNγR2 ablation (FIGS. 7A and 14E). […]

IFNγ: exogenous interferon gamma
amounts of H-2Db MHC-I-bound peptides (MC-38 cells): higher amounts of MHC-I-bound peptides than Oxali treated cells
IRF1 expression (Myc-CaP cells [1]): weak IRF1 induction
eIF2α phosphorylation and CHOP expression (Myc-CaP cells [2]): no effect
effect on MHC-I genes compared with low-dose Oxali (Myc-CaP cells [3]; IFNγ at 200 pg/mL, Myc-CaP and other cell lines): weaker than the effect of low-dose (2 μM) Oxali
Ifngr2 mRNA (Myc-CaP cells [3]; IFNγ on its own, any of the analyzed cell lines): did not induce
transcription factor accessibility of chromosome 17 cluster Psmb9, Tap1, Psmb8, Tap2 (Myc-CaP cells [4]): barely affected
accessibility of transcription factor binding sites at the Nfkb1 locus (Myc-CaP cells [4]): barely had any effect
nuclear foci / nucleolar localization of p300 (p300/CBP; high resolution imaging): not

O=C1[O][Pt]2([NH][C@@H]3CCCC[C@H]3[NH]2)[O]C1=O [Oxali, oxaliplatin]
HLA-ABC surface expression ([5]; MIA PaCa-2 cells): induced HLA-ABC surface expression
Psmb9 and Ifngr2 induction, BRAF (V600E) versus activated NRAS melanoma cells ([5]; panel of human melanoma cell lines): much more responsive
expression of Ifngr2, Psmb9, Tap1, and Nlrc5 mRNAs in tumors (s.c. Myc-CaP tumors): enhanced expression
effect on HDACs in cytoplasm (HDACs): inhibitory effect
nuclear abundance of p65, NF-κB, CREB1, ATF3, P-ATM and JunB (Myc-CaP cells [6]): persistent increases
PSMB8 and PSMB9 protein expression (Myc-CaP and TRC2 cells): induced
H3 acetylation (Lysine 14 and 27) of Psmb8 promotor region [7]: increased H3 acetylation
immunoproteasome activity, hydrolysis of LMP7 (PSMB8)-specific substrate (LMP7 (PSMB8)): stimulated
cell death in vitro [8]: 10-15%
increase in nuclear HAT activity ([9]; after 3 hr of Oxali addition): 4 fold
HAT enzymatic activity ([9]; within 3 hr): increased
IRF1 expression (Myc-CaP cells [1]): induced
effect on IRF1 induction by IFNγ (Myc-CaP cells [1]; added to IFNγ): strongly potentiated
STAT1 phosphorylation (Myc-CaP cells [1]; added to IFNγ-treated cells): dramatically increased
MHC-I machinery component expression [10]: upregulated
MHC-II surface expression ([10]; Oxali alone): did not respond to Oxali alone
MHC-II expression in macrophages co-stimulated with IFNγ ([10]; plus IFNγ): potentiated MHC-II expression
surface expression of H-2Kq (Myc-CaP cells [11]): induced surface expression of H-2Kq
eIF2α phosphorylation and CHOP expression (Myc-CaP cells [2]): induced
γH2AX, marker of DNA damage (Myc-CaP cells [2]): γH2AX induction
Ifna, Ifnb and IL1b expression (Myc-CaP cells [2]; 48 hr): increased
induction of gene set responsive to NF-κB-dependent TNF signaling ([12]; 2 μM, Myc-CaP): strongly induced
induction of IFNγ responsive gene set ([12]; 2 μM, compared with Cis): considerably stronger induction
induction of genes of the MHC-I antigen processing and presentation machinery ([12]; low-dose, Myc-CaP): strongly induced
OT-I T-cell activation and tumor cell killing [13]: led to T-cell activation, resulting in tumor cell killing
induction of Nlrc5, Psmb9, Tap1, Ifngr2, Tapasin, and Erap1 mRNAs (Myc-CaP cells [3]; 2 μM (Oxali and Cis) or 4 μM (Carbo), among the three platinoids): most efficient induction
Ifngr2 gene expression (Myc-CaP cells [3]; Myc-CaP cells): induced
effect of exogenous IFNγ on induction of MHC-I antigen presentation and processing genes by the platinoid (Myc-CaP cells [3]; plus IFNγ): strongly potentiated by exogenous IFNγ
transcription factor accessibility of chromosome 17 cluster Psmb9, Tap1, Psmb8, Tap2 (Myc-CaP cells [4]): increased transcription factor accessibility
accessibility of transcription factor binding sites at the Nfkb1 locus (Myc-CaP cells [4]): increased accessibility
subcutaneous (s.c.) tumor growth ([14]; Myc-CaP, B16, or YUMM1.7, weekly treatment): little effect
tumor regression in vivo ([14]; low-dose Oxali alone, mouse models of PCa): did not cause tumor regression in vivo
nuclear amount of p300 and acetylated p300/CBP (p300/CBP; Myc-CaP cells): enhanced the nuclear expression and acetylation of p300/CBP

Cc1[nH]c2ccccc2c1CCNCc1ccc(/C=C/C(=O)NO)cc1 [Panabinostat]
surface H-2Kq expression on addition of low dose Oxali (Myc-CaP cells [11]; Panabinostat plus low dose Oxali): potentiated
surface expression of H-2Kq (Myc-CaP cells [11]): induced
transcriptional response (MHC-I gene induction) compared with low dose Oxali (Myc-CaP cells [3]; HDAC inhibitor): nearly the same transcriptional response as low dose Oxali
Tap1, Nlrc5, Tapasin, Lmp2, and Ifngr2 mRNAs (Myc-CaP cells [3]; dose that did not induce cell death): induced
